Assay results: publication PMC12627007, “HIV nucleocapsid proteins as targets for novel 1,2-benzisothiazol-3(2H)-one benzenesulfonamides: synthesis and antiretroviral activity” (Frontiers in Microbiology, 2025)

How the values were obtained:
Format in all cases: cell-based
[1] = Cytotoxicity in mock-infected MT-4 cells (MTT method); details: human
Description: The activity of the test compounds against the replication of HIV-1 wt and mutant strains (N119, A17, EFV^R, AZT^R, MDR, SAQ^R) and HIV-2 wt in acutely infected cells was based on the inhibition of virus-induced cytopathogenicity in MT-4 and C8166 cells, respectively. Briefly, 50 μL of culture medium containing 1 × 10^4 cells was added to each well of flat-bottom microtitre trays containing 50 μL of culture medium with or without different serial concentrations of test compounds. Then, 20 μL of an HIV suspension (containing the appropriate amount of CCID50 required to cause complete cytopathogenicity on day 4, final multiplicity of infection [m.o.i.] 0.01) was added. After incubation at 37 °C, cell viability was determined using the […] (MTT) method ([Pauwels et al., 1988]). The cytotoxicity of the test compounds was evaluated in parallel with their antiviral activity through the viability of mock-infected, treated cells, as monitored by the MTT method and described elsewhere ([Morellet et al., 1994]).

HIV-1 IIIB strain = experiment: microbe, parasite or virus in culture; details: for EC50: Human immunodeficiency virus 1, IIIB, MT4, read-out: EC50 HIV-1; for Selectivity Index (SI = CC50/EC50) HIV-1: IIIB strain, in round brackets
Description: (§1) HIV-1IIIB and HIV-2 CBL-20 strains were obtained from the supernatants of persistently infected H9/IIIB and CEM cells, respectively. HIV-1 and HIV-2 stock solutions had titres of 4.5 × 10^7 and 1.4 × 10^6 50% cell culture infectious doses (CCID50)/ml, respectively. […] The K103R + V179D + P225H mutant (EFVR) was derived from an IIIB strain passaged in MT-4 cells in the presence of Efavirenz (up to 2 μM). N119, A17 and EFV^R stock solutions had titres of 1.2 × 10^8, 2.1 × 10^7, and 4.0 × 10^7 CCID50/ml, respectively.
(§2) The activity of the test compounds against the replication of HIV-1 wt and mutant strains (N119, A17, EFV^R, AZT^R, MDR, SAQ^R) and HIV-2 wt in acutely infected cells was based on the inhibition of virus-induced cytopathogenicity in MT-4 and C8166 cells, respectively. Briefly, 50 μL of culture medium containing 1 × 10^4 cells was added to each well of flat-bottom microtitre trays containing 50 μL of culture medium with or without different serial concentrations of test compounds. Then, 20 μL of an HIV suspension (containing the appropriate amount of CCID50 required to cause complete cytopathogenicity on day 4, final multiplicity of infection [m.o.i.] 0.01) was added.

HIV-1 N119 (Y181C) = experiment: Inhibition of virus-induced cytopathogenicity in MT-4 cells, NNRTI-resistant mutant N119; details: for EC50: Human immunodeficiency virus 1, MT4, read-out: EC50 N119; for Selectivity Index (SI = CC50/EC50) N119: in round brackets
Description: as §1, §2

[2] = tested on: HIV-1 A17 (K103N + Y181C); experiment: Inhibition of virus-induced cytopathogenicity in MT-4 cells, NNRTI-resistant mutant A17; details: for EC50: Human immunodeficiency virus 1, MT4, read-out: EC50 A17; for Selectivity Index (SI = CC50/EC50) A17: in round brackets
Description: as §1, §2

[3] = tested on: HIV-1 EFVR (K103R + V179D + P225H); experiment: Inhibition of virus-induced cytopathogenicity in MT-4 cells, NNRTI-resistant mutant EFVR; details: for EC50: Human immunodeficiency virus 1, MT4, read-out: EC50 EFVR; for Selectivity Index (SI = CC50/EC50) EFVR: in round brackets
Description: as §1, §2

[4] = tested on: HIV-1 AZTR (67N, 70R, 215F, 219Q); experiment: Inhibition of virus-induced cytopathogenicity in MT-4 cells, NRTI-resistant mutant AZTR; details: for EC50: Human immunodeficiency virus 1, MT4, read-out: EC50 AZTR; for Selectivity Index (SI = CC50/EC50) AZTR: in round brackets
Description: as §1, §2

[5] = tested on: HIV-1 MDR (74V, 41L, 106A, 215Y); experiment: Inhibition of virus-induced cytopathogenicity in MT-4 cells, NRTI-resistant mutant MDR; details: for EC50: Human immunodeficiency virus 1, MT4, read-out: EC50 MDR; for Selectivity Index (SI = CC50/EC50) MDR: in round brackets
Description: as §1, §2

[6] = tested on: HIV-1 SAQR (L10F, G48V, L90M); experiment: Inhibition of virus-induced cytopathogenicity in MT-4 cells, PRI-resistant mutant SAQR; details: for EC50: Human immunodeficiency virus 1, MT4, read-out: EC50 SAQR; for Selectivity Index (SI = CC50/EC50) SAQR: in round brackets
Description: as §1, §2

In the case of `O=c1c2ccccc2sn1NS(=O)(=O)c1ccc(Cl)cc1` [Compound 13, 4-Chloro-N-(3-oxo-1,2-benzisothiazol-2(3H)-yl)benzenesulfonamide], the CC50 at 4 days [1] is reported as 33 ± 0.1 µM, the EC50 (HIV-1 IIIB strain) is reported as 11 ± 4 µM and the “Selectivity Index (SI = CC50/EC50) HIV-1” value (HIV-1 IIIB strain) is reported as 3. For the same compound, the EC50 (HIV-1 N119 (Y181C)) was 6 ± 0.9 µM, the “Selectivity Index (SI = CC50/EC50) N119” value (HIV-1 N119 (Y181C)) was 5 and the EC50 [2] was 8 ± 1.4 µM. The “Selectivity Index (SI = CC50/EC50) A17” value [2] was 4, the EC50 [3] was 3 ± 1 µM and the “Selectivity Index (SI = CC50/EC50) EFVR” value [3] was 10. The EC50 [4] was 7 ± 1 µM, the “Selectivity Index (SI = CC50/EC50) AZTR” value [4] was 4 and the EC50 [5] was 7 ± 2 µM. For the same compound, the “Selectivity Index (SI = CC50/EC50) MDR” value [5] was 4, the EC50 [6] was 8 ± 2 µM and the “Selectivity Index (SI = CC50/EC50) SAQR” value [6] was 4.
In the case of `O=c1c2ccccc2sn1N(S(=O)(=O)c1ccc(Cl)cc1)S(=O)(=O)c1ccc(Cl)cc1` [Compound 24, 4-Chloro-N-[(4-chlorophenyl)sulfonyl]-N-(3-oxo-1,2-benzisothiazol-2(3H)-yl)benzenesulfonamide], the CC50 at 4 days [1] is reported as over 100 µM, the EC50 (HIV-1 IIIB strain) is reported as 71 ± 6 µM and the EC50 (HIV-1 N119 (Y181C)) is reported as 29 ± 1 µM. For the same compound, the EC50 [2] was 56 µM, the EC50 [3] was 65 µM and the EC50 [4] was 71 µM. For the same compound, the EC50 [5] was 64 µM and the EC50 [6] was 63 µM.
In the case of `O=c1c2ccccc2sn1N(S(=O)(=O)c1ccc(F)cc1)S(=O)(=O)c1ccc(F)cc1` [Compound 23, 4-Fluoro-N-[(4-fluorolphenyl)sulfonyl]-N-(3-oxo-1,2-benzisothiazol-2(3H)-yl)benzenesulfonamide], the CC50 at 4 days [1] is reported as 36 ± 2.5 µM, the EC50 (HIV-1 IIIB strain) is reported as 26 ± 2 µM and the EC50 (HIV-1 N119 (Y181C)) is reported as 23 ± 1 µM. For the same compound, the EC50 [2] was 24 µM, the EC50 [3] was 25 µM and the EC50 [4] was 22 µM. It also gave an EC50 [5] of 25 µM and an EC50 [6] of 22 µM.
Work on `O=c1c2ccccc2sn1N(S(=O)(=O)c1ccccc1)S(=O)(=O)c1ccccc1` [Compound 20, N-(3-oxo-1,2-benzisothiazol-2(3H)-yl)-N-(phenylsulfonyl)benzenesulfonamide] yielded a CC50 at 4 days [1] of over 100 µM, an EC50 (HIV-1 IIIB strain) of 22 ± 3.5 µM and an EC50 (HIV-1 N119 (Y181C)) of 23 ± 1 µM. The EC50 [2] was 25 ± 2 µM, the “Selectivity Index (SI = CC50/EC50) A17” value [2] was over 4 and the EC50 [3] was 22 ± 1 µM. For the same compound, the “Selectivity Index (SI = CC50/EC50) EFVR” value [3] was over 4, the EC50 [4] was 20 ± 2 µM and the “Selectivity Index (SI = CC50/EC50) AZTR” value [4] was over 5. For the same compound, the EC50 [5] was 19 ± 1 µM, the “Selectivity Index (SI = CC50/EC50) MDR” value [5] was over 5 and the EC50 [6] was 25 ± 3 µM. For the same compound, the “Selectivity Index (SI = CC50/EC50) SAQR” value [6] was over 4.
With `O=c1c2ccccc2sn1NS(=O)(=O)c1ccccc1Cl` [Compound 12, 2-Chloro-N-(3-oxo-1,2-benzisothiazol-2(3H)-yl)benzenesulfonamide] the CC50 at 4 days [1] was 73 ± 3 µM, the EC50 (HIV-1 IIIB strain) was 13 ± 2 µM and the “Selectivity Index (SI = CC50/EC50) HIV-1” value (HIV-1 IIIB strain) was 5. The EC50 (HIV-1 N119 (Y181C)) was 7 ± 0.7 µM, the “Selectivity Index (SI = CC50/EC50) N119” value (HIV-1 N119 (Y181C)) was 10 and the EC50 [2] was 11 ± 2 µM. The “Selectivity Index (SI = CC50/EC50) A17” value [2] was 6, the EC50 [3] was 9 ± 0.5 µM and the “Selectivity Index (SI = CC50/EC50) EFVR” value [3] was 8. For the same compound, the EC50 [4] was 9 ± 0.7 µM, the “Selectivity Index (SI = CC50/EC50) AZTR” value [4] was 8 and the EC50 [5] was 7 ± 1 µM. For the same compound, the “Selectivity Index (SI = CC50/EC50) MDR” value [5] was 7, the EC50 [6] was 9 ± 2 µM and the “Selectivity Index (SI = CC50/EC50) SAQR” value [6] was 8.
For `O=c1c2ccccc2sn1NS(=O)(=O)c1ccc(F)cc1` [Compound 11, 4-Fluoro-N-(3-oxo-1,2-benzisothiazol-2(3H)-yl)benzenesulfonamide], the CC50 at 4 days [1] was 50 ± 4 µM, the EC50 (HIV-1 IIIB strain) was 5 ± 2 µM and the “Selectivity Index (SI = CC50/EC50) HIV-1” value (HIV-1 IIIB strain) was 10. The EC50 (HIV-1 N119 (Y181C)) was 5 ± 0.5 µM, the “Selectivity Index (SI = CC50/EC50) N119” value (HIV-1 N119 (Y181C)) was 10 and the EC50 [2] was 5 ± 0.2 µM. For the same compound, the “Selectivity Index (SI = CC50/EC50) A17” value [2] was 10, the EC50 [3] was 2 ± 0.7 µM and the “Selectivity Index (SI = CC50/EC50) EFVR” value [3] was 25. For the same compound, the EC50 [4] was 5 ± 0.5 µM, the “Selectivity Index (SI = CC50/EC50) AZTR” value [4] was 10 and the EC50 [5] was 6 ± 0.5 µM. The “Selectivity Index (SI = CC50/EC50) MDR” value [5] was 8, the EC50 [6] was 4 ± 0.7 µM and the “Selectivity Index (SI = CC50/EC50) SAQR” value [6] was 12.
